Assay results taken from patent US20240376154A1, “BIS-INTERCALATING PEPTIDES, CONJUGATES AND METHODS OF USE” (ZYMEWORKS BC INC., priority 2023, published 2024).

Key:
[1] = Lipophilicity by experimental HPLC retention time; assay type: physicochemical; conditions: HPLC retention time as measure of lipophilicity; C18, 10 to 90% CH3CN/H2O with 0.1% FA over 25 min
Description: The ability to kill neighboring cells (i.e. bystander effect) is an important property for ADC payloads. For a payload comprising a compound of Formula I to be capable of bystander killing, membrane permeability (or transport) is required and the ability of compounds of Formula I to cross cell membranes and exert a cytotoxic effect was expected to be heavily influenced by lipophilicity.
Compounds were analyzed using an Agilent 1260 HPLC (Agilent Technologies, Inc., Santa Clara, CA) equipped with a Diode array detector and using a Phenomenex Kinetex EVO C18 150×4.6, 2.6 μm column (Phenomenex, Torrance, CA), eluting with 10 to 90% CH3CN/H2O with 0.1% FA over 25 min.

[2] = system: tumour cells (at least 4 of a panel of ovarian, breast, lung, pancreatic, placenta, colon cell lines); assay: In vitro cytotoxicity (cell proliferation, CellTiter-Glo), average over tumour cell line panel; assay type: cell-based; conditions: average pIC50 on all cell lines tested; 5 nights incubation; CellTiter-Glo
Description: The ability of representative compounds of Formula I to inhibit proliferation of tumour cells in vitro was evaluated in at least 4 of the following cell lines: OVCAR-3 (ovarian, ATCC), SKOV-3 (ovarian, ATCC), IGROV-1 (ovarian, national research council of Canada (NRC)), OV-90 (ovarian, ATCC), OVKATE (Ovarian, Japanese Collection of Research Bioresources (JCRB) (JCRB1044)), JIMT-1 (breast, NRC), SK-BR-3 (breast, ATCC), T-47D (breast, ATCC), ZR-75-1 (breast, ATCC), MDA-MB-468 (breast, AddexBio), BT-20 (breast, ATCC), BT-474 (breast, NRC), MDA-MB-175 (breast, AddexBio), A549 (lung, collaborator), NCI-H226 (lung, NRC), NCI-H661 (lung, NRC), NCI-H1573 (lung, ATCC). NCI-H1563 (lung, ATCC), H358 (lung, collaborator), EBC-1 (lung, Xenotech), H1299 (lung, NRC), NCI-H292 (lung, ATCC), HCC817 (lung, ATCC), NCI-H441 (lung, ATCC), MIA-PaCa-2 (pancreatic, ATCC), BxPC-3 (pancreatic, ATCC), Panc-1 (pancreatic, ATCC), AsPC-1 (pancreatic, ATCC), JEG-3 (placenta, AddexBio), HT-29 (colon, ATCC).
Cells were cultured per vendor instructions and in log-phase growth were detached by brief incubation in 0.05% trypsin, then resuspended in respective culturing media at 20,000 cells/mL (except for ZR-75 cells, which were resuspended at 10,000 cells/mL). 50 μL/well (˜1000 cells/well) were transferred to sterile tissue culture (TC)-treated 384-well plates (ThermoFisher Scientific, Catalogue #164610) and incubated overnight at 37° C. with 5% CO2 to allow the cells to adhere to the plate surface. The next day, in a sterile, V-bottom, 96-well plate, test articles were titrated 1:3 in complete growth medium, creating a 10-point dose response titration with compounds at 3.5-times the desired final concentration. 20 μL from each dilution were added to the 384-well plate containing the seeded cells and these plates were incubated at 37° C. with 5% CO2 for 5 nights. Cell viability was quantified by first incubating with 15 μL/well of CellTiter-Glo® (Promega, Catalogue #G7572) for 30 minutes, then measuring luminescence with a microplate luminometer (BioTek® Synergy™ H1 Microplate Reader). IC50 values were determined by GraphPad Prism (GraphPad Software, San Diego, CA).
The results are presented in Table 7.1 and discussed in Example 7. Table 7.1 presents the results as average pIC50 values. pIC50=−log (IC50), thus, for example, pIC50=9 is equivalent to IC50=1 nM, and pIC50=6 is equivalent to IC50=1 μM.

SMILES | HPLC [1] | pIC50 (average) [2]
CC(C)[C@H]1C(=O)NC[C@@H](NC(=O)c2nc3ccccc3cc2O)C(=O)N2CCCC[C@H]2C(=O)NCC(=O)N(C)CC(=O)N(C)[C@@H](c2ccccc2)C(=O)NC[C@@H](NC(=O)c2nc3ccccc3cc2O)C(=O)N2CCCC[C@H]2C(=O)NCC(=O)N(C)CC(=O)N1C [Compound 103, N,N′-((7R,11S,19aS,26R,30S,38aS)-11-isopropyl-12,15,31,34-tetramethyl-6,10,13,16,19,25,29,32,35,38-decaoxo-30-phenylhexatriacontahydro-2H,6H-dipyrido[1,2-a:1′,2′-q][1,4,7,10,13,17,20,23,26,29]decaazacyclodotriacontine-7,26-diyl)bis(3-hydroxyquinoline-2-carboxamide)] | 17.2 min | 7.3
CC(C)[C@H]1C(=O)NC[C@@H](NC(=O)c2nc3ccccc3cc2O)C(=O)N2CCCC[C@H]2C(=O)NCC(=O)N(C)CC(=O)N(C)C2(CC2)C(=O)NC[C@@H](NC(=O)c2nc3ccccc3cc2O)C(=O)N2CCCC[C@H]2C(=O)NCC(=O)N(C)CC(=O)N1C [Compound 109, N,N′-((7′R,19a'S,26′R,30'S,38a'S)-30′-isopropyl-12′,15′,31′,34′-tetramethyl-6′,10′,13′,16′,19′,25′,29′,32′,35′,38′-decaoxotetratriacontahydro-2′H,6′H,12′H-spiro[cyclopropane-1,11′-dipyrido[1,2-a:1′,2′-q][1,4,7,10,13,17,20,23,26,29]decaazacyclodotriacontine]-7′,26′-diyl)bis(3-hydroxyquinoline-2-carboxamide)] | 15.4 min | 7.77
CC(C)[C@H]1C(=O)NC[C@@H](NC(=O)c2nc3ccccc3cc2O)C(=O)N2CCCC[C@H]2C(=O)NCC(=O)N(C)CC(=O)N(C)C(C)(C)C(=O)NC[C@@H](NC(=O)c2nc3ccccc3cc2O)C(=O)N2CCCC[C@H]2C(=O)NCC(=O)N(C)CC(=O)N1C [Compound 115, N,N′-((7R,19aS,26R,30S,38aS)-30-isopropyl-11,11,12,15,31,34-hexamethyl-6,10,13,16,19,25,29,32,35,38-decaoxohexatriacontahydro-2H,6H-dipyrido[1,2-a:1′,2′-q][1,4,7,10,13,17,20,23,26,29]decaazacyclodotriacontine-7,26-diyl)bis(3-hydroxyquinoline-2-carboxamide)] | 15.8 min | Inactive
CC(C)[C@H]1C(=O)NC[C@@H](NC(=O)c2nc3ccccc3cc2O)C(=O)N2CCCC[C@H]2C(=O)NCC(=O)N(C)CC(=O)N(C)C2(CCC2)C(=O)NC[C@@H](NC(=O)c2nc3ccccc3cc2O)C(=O)N2CCCC[C@H]2C(=O)NCC(=O)N(C)CC(=O)N1C [Compound 121, N,N′-((7′R,19a'S,26′R,30'S,38a'S)-30′-isopropyl-12′,15′,31′,34′-tetramethyl-6′,10′,13′,16′,19′,25′,29′,32′,35′,38′-decaoxotetratriacontahydro-2′H,6′H,12′H-spiro[cyclobutane-1,11′-dipyrido[1,2-a:1′,2′-q][1,4,7,10,13,17,20,23,26,29]decaazacyclodotriacontine]-7′,26′-diyl)bis(3-hydroxyquinoline-2-carboxamide)] | 17.0 min | 8.18
CC[C@H](C)[C@H]1C(=O)NC[C@@H](NC(=O)c2nc3ccc(Br)cc3cc2O)C(=O)N2CCCC[C@H]2C(=O)NCC(=O)N(C)CC(=O)N(C)[C@@H]([C@@H](C)CC)C(=O)NC[C@@H](NC(=O)c2nc3ccc(Br)cc3cc2O)C(=O)N2CCCC[C@H]2C(=O)NCC(=O)N(C)CC(=O)N1C [Compound 127, N,N′-((7R,11S,19aS,26R,30S,38aS)-11,30-di((S)-sec-butyl)-12,15,31,34-tetramethyl-6,10,13,16,19,25,29,32,35,38-decaoxohexatriacontahydro-2H,6H-dipyrido[1,2-a:1′,2′-q][1,4,7,10,13,17,20,23,26,29]decaazacyclodotriacontine-7,26-diyl)bis(6-bromo-3-hydroxyquinoline-2-carboxamide)] | 21.0 min | 8.7
CCN1C(=O)CN(C)C(=O)CNC(=O)[C@@H]2CCCCN2C(=O)[C@H](NC(=O)c2nc3ccccc3cc2O)CNC(=O)[C@H](C(C)C)N(CC)C(=O)CN(C)C(=O)CNC(=O)[C@@H]2CCCCN2C(=O)[C@H](NC(=O)c2nc3ccccc3cc2O)CNC(=O)[C@@H]1C(C)C [Compound 147, N,N′-((7R,11S,19aS,26R,30S,38aS)-12,31-diethyl-11,30-diisopropyl-15,34-dimethyl-6,10,13,16,19,25,29,32,35,38-decaoxohexatriacontahydro-2H,6H-dipyrido[1,2-a:1′,2′-q][1,4,7,10,13,17,20,23,26,29]decaazacyclodotriacontine-7,26-diyl)bis(3-hydroxyquinoline-2-carboxamide)] | 17.9 min | 8.5
CN1CC(=O)N2CCCCC[C@H]2C(=O)NC[C@@H](NC(=O)c2nc3ccccc3cc2O)C(=O)N2CCCC[C@H]2C(=O)NCC(=O)N(C)CC(=O)N2CCCCC[C@H]2C(=O)NC[C@@H](NC(=O)c2nc3ccccc3cc2O)C(=O)N2CCCC[C@H]2C(=O)NCC1=O [Compound 157, N,N′-((7R,10aS,23aS,30R,33aS,46aS)-19,42-dimethyl-6,10,17,20,23,29,33,40,43,46-decaoxotetratetracontahydro-6H,29H-bis(azepino) [1,2-j:1′,2′-z]dipyrido[1,2-a:1′,2′-q][1,4,7,10,13,17,20,23,26,29]decaazacyclodotriacontine-7,30-diyl)bis(3-hydroxyquinoline-2-carboxamide)] | 15.8 min | 7.1
CN1CC(=O)N(C)[C@@H](C2CCCCC2)C(=O)NC[C@@H](NC(=O)c2nc3ccccc3cc2O)C(=O)N2CCCC[C@H]2C(=O)NCC(=O)N(C)CC(=O)N(C)[C@@H](C2CCCCC2)C(=O)NC[C@@H](NC(=O)c2nc3ccccc3cc2O)C(=O)N2CCCC[C@H]2C(=O)NCC1=O [Compound 162, N,N′-((7R,11S,19aS,26R,30S,38aS)-11,30-dicyclohexyl-12,15,31,34-tetramethyl-6,10,13,16,19,25,29,32,35,38-decaoxohexatriacontahydro-2H,6H-dipyrido[1,2-a:1′,2′-q][1,4,7,10,13,17,20,23,26,29]decaazacyclodotriacontine-7,26-diyl)bis(3-hydroxyquinoline-2-carboxamide)] | 20.7 min | 9.1
CC[C@H](C)[C@H]1COC[C@@H](NC(=O)c2nc3ccccc3cc2O)C(=O)N2CCCC[C@H]2C(=O)NCC(=O)N(C)CC(=O)N(C)[C@@H](C(C)C)C(=O)NC[C@@H](NC(=O)c2nc3ccccc3cc2O)C(=O)N2CCCC[C@H]2C(=O)NCC(=O)N(C)CC(=O)N1C [Compound 197, N,N′-((7R,11S,19aS,26R,30S,38aS)-11-((S)-sec-butyl)-30-isopropyl-12,15,31,34-tetramethyl-6,13,16,19,25,29,32,35,38-nonaoxotetratriacontahydro-2H,6H,10H-dipyrido[2,1-b1: 2′,1′-l][1]oxa[4,7,10,13,17,20,23,26,29]nonaazacyclodotriacontine-7,26-diyl)bis(3-hydroxyquinoline-2-carboxamide)] | 19.4 min | 9.4
